Reference: PubChem BioAssay (NCI)
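Cultured in 96-well plates, cells were exposed to test compound for 48 hours across five concentrations. GI50 is the concentration that inhibits growth by half. TGI is the concentration that stops growth completely.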

Key:
Assay in all cases: NCI anticancer screen, dose series, 48 h
[1] = test system: A549 NSCLC
[2] = test system: BT-549 breast
[3] = test system: DU-145 prostate
[4] = test system: HOP-62 NSCLC
[5] = test system: KM12 colon
[6] = test system: M14 melanoma
[7] = test system: NCI-H460 lung
[8] = test system: SF-539 CNS
[9] = test system: SK-MEL-5 melanoma
[10] = test system: SNB-75 CNS

| SMILES | GI50 [1] [µM] | TGI [1] [µM] | GI50 [2] [µM] | TGI [2] [µM] | GI50 [3] [µM] | TGI [3] [µM] | GI50 [4] [µM] | TGI [4] [µM] | GI50 [5] [µM] | TGI [5] [µM] | GI50 [6] [µM] | TGI [6] [µM] | GI50 [7] [µM] | TGI [7] [µM] | GI50 [8] [µM] | TGI [8] [µM] | GI50 [9] [µM] | TGI [9] [µM] | GI50 [10] [µM] | TGI [10] [µM] |
| --- | --- | --- | --- | --- | --- | --- | --- | --- | --- | --- | --- | --- | --- | --- | --- | --- | --- | --- | --- | --- |
| [CH3][Sn]([CH3])([CH3])[O]C(=O)C(O)c1ccccc1 (stereo not given) | 4.72 | 49.1 | 17.9 | > 100 | 6.18 | > 100 | 2.12 | 4.4 | 8.78 | > 100 | 1.98 | 4.15 | 3.9 | > 69.8 | 5.9 | 29.2 | 1.83 | 3.35 | 5.61 | 54.3 |
| COc1ccc(-c2nnc(Nc3nc(O)c(C4=c5cc(OC(F)(F)F)ccc5=NC4=O)s3)o2)cc1 | 17.2 | 81.4 | 19.7 | 37.7 | 23.4 | 87.1 | 15.7 | 30.3 | 3.75 | 19.6 | 8.76 | 28.5 | 22 | > 100 | 16.2 | 30.7 | 17.7 | 42.9 | 15.3 | 36.8 |
| Cc1ccc(-c2c3c(N)nc(-c4ccncc4)nc3nc3c2c(C)nn3-c2ccccc2)cc1 | 2.62 | > 37.5 | 7.38 | 17.9 | 5.08 | 20.7 | 0.647 | 1.95 | 31.4 | > 37.5 | 13.8 | > 37.5 | 6.5 | 33.6 | 2.26 | 7.57 | 10.2 | > 37.5 | 1.64 | 15.2 |
| Cc1ccc2c(n1)C(=O)C(Cl)=C(Nc1ccc(N3CCN(C)CC3)cc1)C2=O | 14.6 | 30 | 1.61 | 2.97 | 1.76 | 3.25 | 3.63 | 14.7 | 10.2 | 23.5 | 1.84 | 3.32 | 3.74 | 15.7 | 1.74 | 3.22 | 1.72 | 3.1 | 2.11 | 8.53 |
| O=C1c2cccc3cccc(c23)C(=O)N1CC#Cc1ccc2c3c(cccc13)C(=O)N(CCN1CCNCC1)C2=O | 3.19 | 12 | 9.51 | 34.4 | 2.06 | 4.12 | 5.09 | 30.1 | 2.12 | 4.6 | 2.53 | 6.19 | 1.92 | 3.6 | 1.82 | 3.39 | 18.3 | 36.4 | 4.49 | 19.9 |
| COc1cc(-c2ccc(Nc3ccccc3C(=O)O)c(OC)c2)ccc1Nc1ccccc1C(=O)O | – | > 100 | – | 57.4 | – | 49.9 | – | 49.8 | – | > 70.9 | – | > 100 | – | 36.7 | – | 45 | – | > 100 | – | 91.3 |
| O=c1c(-c2ccc3c(c2)OCO3)coc2c(CO)c(O)ccc12 | 6.8 | 30.9 | 1.47 | 3.41 | 2.41 | 7.06 | 2.07 | 5.01 | 3.24 | 13.3 | 3.2 | 14.8 | 2.6 | 7.85 | 2.28 | 6.46 | 1.91 | 3.98 | 2.39 | 7.43 |
| C/C(=C\CCc1ccsc1)CC/C=C(\C)CCCN1CCN(CCO)CC1 | 3.05 | 13.3 | 2.78 | 10.9 | 6.96 | 19.6 | 2.6 | 6.4 | 2.38 | 5.66 | 2.05 | 4.2 | 1.96 | 3.79 | 3.41 | 13.9 | 1.59 | 2.97 | 2.45 | 8.51 |
| O=S(=O)(CC(O)C(Cl)(Cl)Cl)NNc1ccccc1 (stereo not given) | – | > 100 | – | > 100 | – | > 100 | – | > 100 | – | > 100 | – | > 100 | – | > 100 | – | > 100 | – | > 100 | – | > 100 |
| CCN1CCN(CC(=O)Nc2nc3ccc(NCc4ccc(C)cc4)cc3s2)CC1 | 2.29 | 8.61 | 6.45 | 19.3 | 7.97 | 16.4 | 2.02 | 8.03 | 5.67 | 13.8 | 1.14 | 2.19 | 2.12 | 7.71 | 1.5 | 4.3 | 0.975 | 2.01 | 2.69 | 9.42 |
